Source: PubChem BioAssay AID248 (DTP/NCI, 2004)
Where “and” joins values, the source holds several entries; their conditions need not be identical. Identical values can stand only once. Inconclusive results and toxic doses are left out. No stated cut-off is given here; in the data, active means T/C of 150% or more; inactive means T/C below 125%.

Tested on: L1210 leukemia ip in BDF1 mice, survival T/C
Assay: NCI In Vivo Anticancer Drug Screen. Data for tumor model L1210 Leukemia (intraperitoneal) in B6D2F1 (BDF1) mice
Details: endpoint: mean survival time, higher = longer survival
How it was run: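 Ratio derived from survival: compound-dosed mice over vehicle-dosed mice, all bearing a transplantable tumor.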

[1] = dose: 25.0 mg/kg/injection, schedule: Q04DX003 (ip), vehicle: saline with Tween-80
[2] = dose: 100.0 mg/kg/injection, schedule: Q04DX003 (ip), vehicle: saline with Tween-80
[3] = dose: 100.0 mg/kg/injection, schedule: Q04DX003 (ip), vehicle: Klucel (hydroxypropylcellulose) (HPC)
[4] = dose: 200.0 mg/kg/injection, schedule: Q04DX003 (ip), vehicle: Klucel (hydroxypropylcellulose) (HPC)

Measured: T/C

CC(=O)Nc1c(C(N)=O)ncn1C1OC(COC(C)=O)C(OC(C)=O)C1OC(C)=O (stereo unspecified)
inactive: dose: 100.0 mg/kg/injection, schedule: Q01DX005 (ip), vehicle: saline 96 % of control | dose: 200.0 mg/kg/injection, schedule: Q01DX005 (ip), vehicle: saline 100 % of control

c1ccc(N2CCNCC2)nc1
inactive: dose: 5.0 mg/kg/injection, schedule: Q01DX009 (ip), vehicle: acetone 100 % of control | dose: 10.0 mg/kg/injection, schedule: Q01DX001 (ip), vehicle: acetone 96 % of control | dose: 10.0 mg/kg/injection, schedule: Q01DX009 (ip), vehicle: acetone 97 % of control | dose: 10.0 mg/kg/injection, schedule: Q04DX003 (ip), vehicle: saline 109 % of control | dose: 20.0 mg/kg/injection, schedule: Q01DX001 (ip), vehicle: acetone 95 % of control | dose: 20.0 mg/kg/injection, schedule: Q01DX009 (ip), vehicle: acetone 95 % of control | dose: 20.0 mg/kg/injection, schedule: Q04DX003 (ip), vehicle: saline 98 % of control | dose: 40.0 mg/kg/injection, schedule: Q01DX001 (ip), vehicle: acetone 106 % of control | dose: 40.0 mg/kg/injection, schedule: Q04DX003 (ip), vehicle: saline 101 % of control

O=C(CC(O)(C(F)(F)F)C(F)(F)F)CC(O)(C(F)(F)F)C(F)(F)F
inactive: dose: 0.25 mg/kg/injection, schedule: Q01DX009 (ip), vehicle: other 111 % of control | dose: 0.5 mg/kg/injection, schedule: Q01DX009 (ip), vehicle: other 107 % of control and 88 % of control | dose: 1.0 mg/kg/injection, schedule: Q01DX009 (ip), vehicle: other 97 % of control | dose: 1.0 mg/kg/injection, schedule: Q04DX003 (ip), vehicle: other 94 % of control | dose: 1.25 mg/kg/injection, schedule: Q01DX009 (ip), vehicle: saline 95 % of control | dose: 2.0 mg/kg/injection, schedule: Q01DX009 (ip), vehicle: other 108 % of control | dose: 2.0 mg/kg/injection, schedule: Q04DX003 (ip), vehicle: other 87 % of control | dose: 2.5 mg/kg/injection, schedule: Q01DX009 (ip), vehicle: saline with Tween-80 102 % of control | dose: 2.5 mg/kg/injection, schedule: Q01DX009 (ip), vehicle: saline 104 % of control | dose: 3.13 mg/kg/injection, schedule: Q04DX003 (ip), vehicle: other 104 % of control | dose: 5.0 mg/kg/injection, schedule: Q01DX009 (ip), vehicle: saline with Tween-80 97 % of control | dose: 5.0 mg/kg/injection, schedule: Q01DX009 (ip), vehicle: saline 95 % of control

Cc1ccc([N+](=O)[O-])c2ccccc12
inactive: dose: 100.0 mg/kg/injection, schedule: Q01DX001 (ip), vehicle: saline with Tween-80 103 % of control | dose: 200.0 mg/kg/injection, schedule: Q01DX001 (ip), vehicle: saline with Tween-80 97 % of control | dose: 400.0 mg/kg/injection, schedule: Q01DX001 (ip), vehicle: saline with Tween-80 97 % of control

FC(F)(F)c1ccc2c(c1)N(CCCN(CCCl)CCCl)c1ccccc1S2
inactive: dose: 3.12 mg/kg/injection, schedule: Q01DX001 (ip), vehicle: saline with Tween-80 102 % of control | dose: 3.12 mg/kg/injection, schedule: Q01DX009 (ip), vehicle: saline with Tween-80 102 % of control | dose: 6.25 mg/kg/injection, schedule: Q01DX001 (ip), vehicle: saline with Tween-80 102 % of control | dose: 6.25 mg/kg/injection, schedule: Q01DX009 (ip), vehicle: saline with Tween-80 98 % of control | dose: 12.5 mg/kg/injection, schedule: Q01DX001 (ip), vehicle: saline with Tween-80 100 % of control | dose: 12.5 mg/kg/injection, schedule: Q01DX009 (ip), vehicle: saline with Tween-80 100 % of control | dose: 12.5 mg/kg/injection, schedule: Q04DX003 (ip), vehicle: saline with Tween-80 102 % of control | [1] 113 % of control | dose: 50.0 mg/kg/injection, schedule: Q04DX003 (ip), vehicle: saline with Tween-80 98 % of control | [2] 113 % of control

C1CCC2[N-]CC3CCCCC3[N-]CC3CCCCC3[N-]CC3CCCCC3[N-]CC2C1.[Cl][Fe]([Cl])([Cl])[Cl].[Fe+6] (stereo unspecified)
inactive: dose: 12.5 mg/kg/injection, schedule: Q04DX002 (ip), vehicle: Klucel (hydroxypropylcellulose) (HPC) 102 % of control | dose: 25.0 mg/kg/injection, schedule: Q04DX002 (ip), vehicle: Klucel (hydroxypropylcellulose) (HPC) 102 % of control | dose: 50.0 mg/kg/injection, schedule: Q04DX002 (ip), vehicle: Klucel (hydroxypropylcellulose) (HPC) 94 % of control

O=C(CN1CCCCC1)c1ccc(/C=C/c2ccc(Cl)cc2)cc1
inactive: dose: 12.5 mg/kg/injection, schedule: Q01DX009 (ip), vehicle: Klucel (hydroxypropylcellulose) (HPC) 93 % of control | dose: 25.0 mg/kg/injection, schedule: Q01DX009 (ip), vehicle: Klucel (hydroxypropylcellulose) (HPC) 97 % of control | dose: 50.0 mg/kg/injection, schedule: Q01DX009 (ip), vehicle: Klucel (hydroxypropylcellulose) (HPC) 87 % of control and 88 % of control | [3] 88 % of control | [4] 88 % of control

OCC1OC(OC2C(CO)OCC(O)C2O)C(O)C(O)C1O (stereo unspecified)
inactive: dose: 100.0 mg/kg/injection, schedule: Q04DX002 (ip), vehicle: saline with Tween-80 100 % of control | dose: 200.0 mg/kg/injection, schedule: Q04DX002 (ip), vehicle: saline with Tween-80 100 % of control | dose: 400.0 mg/kg/injection, schedule: Q04DX002 (ip), vehicle: saline with Tween-80 88 % of control

CCOC(=O)C(N)=S
inactive: dose: 100.0 mg/kg/injection, schedule: Q04DX003 (ip), vehicle: saline 98 % of control | dose: 200.0 mg/kg/injection, schedule: Q04DX003 (ip), vehicle: saline 96 % of control | dose: 400.0 mg/kg/injection, schedule: Q04DX003 (ip), vehicle: saline 88 % of control

O=C1/C(=C(/c2ccccc2)N2CCOCC2)Cc2ccccc21
inactive: [1] 90 % of control | [2] 95 % of control

COc1cc2[nH]c(=O)c3cccn3c(=O)c2cc1OC
inactive: dose: 50.0 mg/kg/injection, schedule: Q04DX002 (ip), vehicle: other 102 % of control | dose: 100.0 mg/kg/injection, schedule: Q04DX002 (ip), vehicle: other 105 % of control | dose: 200.0 mg/kg/injection, schedule: Q04DX002 (ip), vehicle: other 94 % of control

CC(C)N1CCC1C (stereo unspecified)
inactive: dose: 100.0 mg/kg/injection, schedule: Q04DX003 (ip), vehicle: acetone 96 % of control

COc1cccc(/C=N/NC(=O)CNC(=O)Nc2cccc([N+](=O)[O-])c2)c1OC
inactive: dose: 50.0 mg/kg/injection, schedule: Q01DX009 (ip), vehicle: saline with Tween-80 89 % of control | dose: 100.0 mg/kg/injection, schedule: Q01DX009 (ip), vehicle: saline with Tween-80 96 % of control | dose: 200.0 mg/kg/injection, schedule: Q01DX009 (ip), vehicle: saline with Tween-80 89 % of control

CCOC(=O)C(C(C)=O)C(c1ccc([N+](=O)[O-])cc1)C(C(C)=O)C(=O)OCC (stereo unspecified)
inactive: dose: 3.12 mg/kg/injection, schedule: Q01DX009 (ip), vehicle: saline 86 % of control | dose: 6.25 mg/kg/injection, schedule: Q01DX009 (ip), vehicle: saline 88 % of control | dose: 12.5 mg/kg/injection, schedule: Q01DX009 (ip), vehicle: saline 89 % of control | dose: 25.0 mg/kg/injection, schedule: Q01DX009 (ip), vehicle: saline 86 % of control

O=C1OCC/C1=C\NCCCN/C=C1\CCOC1=O
inactive: dose: 100.0 mg/kg/injection, schedule: Q04DX002 (ip), vehicle: Klucel (hydroxypropylcellulose) (HPC) 105 % of control | dose: 200.0 mg/kg/injection, schedule: Q04DX002 (ip), vehicle: Klucel (hydroxypropylcellulose) (HPC) 108 % of control | dose: 400.0 mg/kg/injection, schedule: Q04DX002 (ip), vehicle: Klucel (hydroxypropylcellulose) (HPC) 94 % of control

Clc1cc(C(Cl)(Cl)Cl)c(Cl)cc1C(Cl)(Cl)Cl
inactive: dose: 25.0 mg/kg/injection, schedule: Q04DX003 (ip), vehicle: Klucel (hydroxypropylcellulose) (HPC) 93 % of control | dose: 50.0 mg/kg/injection, schedule: Q04DX003 (ip), vehicle: Klucel (hydroxypropylcellulose) (HPC) 104 % of control | dose: 100.0 mg/kg/injection, schedule: Q01DX009 (ip), vehicle: saline sonified 120 % of control | [3] 97 % of control | dose: 200.0 mg/kg/injection, schedule: Q01DX009 (ip), vehicle: saline sonified 104 % of control | [4] 94 % of control | dose: 400.0 mg/kg/injection, schedule: Q01DX009 (ip), vehicle: saline sonified 94 % of control | dose: 400.0 mg/kg/injection, schedule: Q04DX003 (ip), vehicle: Klucel (hydroxypropylcellulose) (HPC) 94 % of control

ClCc1nc2ccc(Cl)cc2[nH]1
inactive: dose: 100.0 mg/kg/injection, schedule: Q01DX001 (ip), vehicle: other 104 % of control | dose: 200.0 mg/kg/injection, schedule: Q01DX001 (ip), vehicle: other 106 % of control
